In article PMC7459852, “Identification of 6-(piperazin-1-yl)-1,3,5-triazine as a chemical scaffold with broad anti-schistosomal activities” (Wellcome Open Research, 2020):
Read-outs that look alike come from different tables or passages of the source.

What was measured:
S. mansoni adult worms = test: Adult worm screens (WormassayGP2 motility, egg count); format: cell-based, Schistosoma mansoni; settings: 72 h
Experimental: For compound screening, adult worms (three worm pairs/well for compound 7 and the hit compounds of set two; one worm pair/well for the hit compounds of set three) were transferred into wells of a 48-well tissue culture plate containing 1 ml of adult worm media. Adult worms were treated with compounds previously identified as hits at 10 µM on 72 h cultured schistosomula. Worms were dosed with an appropriate volume of 10 mM stock solution of each compound (in DMSO) to have a concentration range of 50 – 6.25 µM (up to 0.5% DMSO, primary screen of compound 7). Secondary screens were performed on the structural analogues of compound 7 (only the schistosomula hits at 10 µM) at a single concentration (12.5 µM) and compared to the same concentration of the parental compound (included in the screen as reference). DMSO (0.5%) and praziquantel (10 µM in 0.5% DMSO) were also included as negative and positive control treatments (both primary and secondary screens). Treated adult worms were incubated for 72 h in a humidified environment at 5% CO 2 at 37°C. Parasite motility after drug treatment was assessed by a digital image processing-based system (WormassayGP2, see Software availability) modified after Wormassay, [56], [57]. Egg production was assessed according to the methodology described by Edwards et al..

S. mansoni schistosomula = test: Schistosomula screens (Roboworm, phenotype and motility); format: cell-based, Schistosoma mansoni; settings: 72 h; for EC50: Schistosoma mansoni, dose response titrations (10 - 0.625 µM)
Experimental: Anthelmintic activity on the schistosomula stage of S. mansoni was evaluated using Roboworm, an integrated high-throughput, high content image analysis platform originally developed by Paveley et al. and subsequently used by our research group as previously described, [28], [50], [51]. Alternatively, the computer application Worminator can be used to assess motion of microscopic parasites such as the schistosomula stage of S. mansoni. Compounds (as single concentration or two-fold titrations) were prepared for screening in a 384-well plate (PerkinElmer, MA, USA), where solutions (1.6 mM, 0.5 μl) were wet stamped using the Biomek NX ^P liquid handling platform into Basch medium (20 μl). Negative (0.625% DMSO) and positive (Auranofin - AUR - at 10 µM final concentration in 0.625% DMSO) control wells were similarly prepared. Mechanically transformed schistosomula (about 120 parasites in 60 μl of Basch medium) were distributed into each treated well using a WellMate (Thermo Scientific, Loughborough, UK). Schistosomula/compound co-cultures were then incubated at 37°C for 72 h in a humidified atmosphere containing 5% CO 2. At 72 h, parasite/compound co-cultures were resuspended and tissue culture plates were imaged under the same conditions (37°C for 72 h in a humidified atmosphere containing 5% CO 2) using an ImageXpressXL high content imager (Molecular Devices, UK) with subsequent images processed for phenotype and motility as previously reported. Plate analysis returned a phenotype and motility score for each well and any scores below -0.15 and -0.35 (defined threshold anti-schistosomula values for phenotype and motility scores, respectively) defined a condition displaying anti-schistosomula activity. Compound screens were assessed based on the Z´ values (derived from the means and standard deviations of positive and negative controls) and those equal to or above 0.3 for both phenotype and motility were considered successful.
Phenotype and motility scores of each titration were used to generate dose response curves in GraphPad Prism 7.02 based on the corrected average score of the three replicates for each data point.

HepG2 cells = test: MTT cytotoxicity assay on HepG2 cells; format: cell-based, Human
Experimental: (§1) Compound cytotoxicity on Human Hepatocyte Carcinoma (HepG2) cells (85011430, Sigma Aldrich) was elucidated by the MTT (3-(4,5-dimethylthiazol-2-yl)-2,5-diphenyltetrazolium bromide) tetrazolium reduction assay as previously described, [28], [50]. Briefly, HepG2 cells were seeded at a density of 20,000 per well in 96-well black, clear bottom falcon plate in modified BME medium (50 μl; containing 1% antibiotic/mycotic (Sigma-Aldrich, Gillingham, UK), 1% 200 mM L-glutammine (Gibco, Paisley, UK), 1% MEM non-essential amino acid solution (Gibco, Paisley, UK), and 10% fetal bovine serum (Gibco, Paisley, UK)). HepG2 plates seeded for cytotoxicity screens were treated with compounds 24 h post-seeding. Each compound was tested at 200, 100, 75, 50, 20, 10 and 1 µM; each concentration was assayed in triplicate. Blank wells (no cells), as well as positive (1% v/v Triton X-100, X100, Sigma-Aldrich) and negative (1.25% v/v DMSO or media only) controls, were included in each plate. After addition of compounds, each plate was then incubated for a further 20 h before application of MTT reagent for assessment of compound cytotoxicity (4 h incubation with MTT for a total 24 h cell-drug incubation). The absorbance reading at 570 nm was measured with a POLARstar Omega (BMG Labtech, UK) microtiter plate reader. Dose response curves were generated in GraphPad Prism 7.02 based on the corrected average absorbance of the three replicates for each concentration point.

[1] = MTT cytotoxicity assay on HepG2 cells; format: cell-based, Human; settings: human, HepG2 cells, MTT, 24 h; three dose response titrations (200 - 1 µM)
Experimental: as §1

S. mansoni miracidia = test: Miracidia to sporocyst transformation screens; format: cell-based, Schistosoma mansoni; settings: 10 µM, 48 h
Experimental: Following hatching of S. mansoni eggs, miracidia were incubated on ice for 15 min and then centrifuged at 700 x g for 5 min at 4°C. The miracidia pellet was then re-suspended in 5 ml of Chernin's balanced salt solution (CBSS), subjected to pelleting and two subsequent washes (all at 700 x g for 5 min at 4°C). Afterwards, the supernatant was carefully removed with a serological pipette and the miracidia-enriched pellet was resuspended with CBSS supplemented with 1 mg/ml each of glucose and trehalose and 500 µl of Penicillin-Streptomycin (containing 10,000 units penicillin and 10 mg streptomycin/ml, P4333, Sigma-Aldrich). In preparation for the screens, CBSS (250 µl) was aliquoted to each well of a 24-well plate followed by addition of each compound in DMSO (1 mM concentration in 1% DMSO) or DMSO alone (1%, negative control). Next, approximately 20-25 miracidia (in 250 µl of CBSS) were aliquoted to each well. […] Both preliminary and secondary screens were performed in duplicate on two separate occasions (two independent biological replicates). Miracidia were incubated for 48 h at 26°C before being evaluated using an Olympus inverted light microscope for morphological and behavioural changes differing from the control wells. Dead, partially transformed and fully transformed miracidia were enumerated in the DMSO control and the assay plates as previously described, [23], [59]. […] Absence of ciliated plates attached to the surface of the parasite and formation of sporocyst tegument defined the so-called “fully transformed” parasites.

Schistosoma mansoni [2] = tested on: Schistosoma mansoni; set-up: method as in PMID 24037106; settings: cited from earlier work
Schistosoma mansoni [3] = tested on: Schistosoma mansoni; set-up: method as in PMID 24037106; settings: cited from earlier work; remark: listed apart in the source

| SMILES | adult worm motility and oviposition (S. mansoni adult worms; 6.25 µM, compared to compound 7) | adult worm egg production (S. mansoni adult worms; 12.5 µM) | adult worm motility compared to compound 7 (S. mansoni adult worms; 12.5 µM) | anti-schistosomula activity (hit on phenotype and motility) (S. mansoni schistosomula; 50 µM) | EC50 (S. mansoni schistosomula; read-out: Schistosomula EC50 Motility) [µM] | EC50 (S. mansoni schistosomula; read-out: Schistosomula EC50 Phenotype) [µM] | CC50 (HepG2 cells; MTT, 24 h, three dose response titrations (200 - 1 µM)) [µM] | cytotoxicity on HepG2 cells (in words) (HepG2 cells; dose response titration) | CC50 at 24 h [1] [µM] | effect on miracidia (S. mansoni miracidia) | in vitro anti-schistosomal activity (Schistosoma mansoni [2]) | in vivo anti-schistosomal activity (Schistosoma mansoni [3]) |
| --- | --- | --- | --- | --- | --- | --- | --- | --- | --- | --- | --- | --- |
| Cc1ccc(Nc2nc(C3CCCCC3)nc(N3CCNCC3)n2)cc1 [Compound 23] | strong anthelmintic activities | greater potency than compound 7 | greater potency than compound 7 | active at the highest concentration | 2.79 | 3.06 | 6.73 | showed the highest toxicity | < 10 | readily killed miracidia | – | – |
| Cc1ccc(NC(=O)c2ccc(CN3CCN(C)CC3)cc2)cc1Nc1nccc(-c2cccnc2)n1 [Imatinib] | – | – | – | – | – | – | – | – | – | – | potent in vitro anti-schistosomal activity | lost in vivo |
